Source: patent US6040338A, “N,n-bis(sulfonyl)hydrazines useful as antineoplastic agents” (Yale University, priority 1997, dated 2000)
Entries after “also recorded” stand apart in the source; their conditions may differ. Counter-ions that a name gives are not always drawn.

Tests used:
tumor = settings: in vivo; cited from earlier work
host animals = settings: in vivo; cited from earlier work
GSH/GST = assay: Relative rate of activation by GSH/GST in vitro; format: in vitro ADME; settings: GSH 1 mM, GST 400 μg/ml; for Relative Activation Rate by GSH/GST: 1 mM compound, compound 6 = 100
Protocol: When R^3 is a methyl group, the rate of activation by GSH/GST is highly dependent upon the nature of the 2-alkoxy- or 2-aryloxycarbonyl moiety at the R^4 position.
The rate of activation of 2-(2-bromoethoxy)carbonyl-1,2-bis(methylsulfonyl)-1-methylhydrazine (compound 8) was elevated approximately 18-fold in vitro by the presence of GSH (1 mM) and GST (400 μg/ml), compared to buffer alone.

[1] = Activation by hydrolysis in phosphate buffer; format: physicochemical; settings: 1 mM phosphate buffer, pH 7.4, 37° C.
Protocol: (§1) The rates of activation of compounds 10a-h were measured in 1 mM phosphate buffer (pH 7.4, 37° C.) alone, 1 mM phosphate buffer containing 5 mM GSH (pH 7.4, 37° C.), and in 1 mM phosphate buffer containing 5 mM GSH and 17.5 U/ml of GST (pH 7.4, 37° C.) (Table 3).

[2] = Activation by thiolysis (GSH); format: in vitro ADME; settings: 1 mM phosphate buffer, 5 mM GSH, pH 7.4, 37° C.
Protocol: as §1

GST = assay: Activation by GST-catalyzed thiolysis; format: in vitro ADME; settings: 1 mM phosphate buffer, 5 mM GSH, 17.5 U/ml GST, pH 7.4, 37° C.
Protocol: as §1

L1210 leukemia = assay: Survival time and body weight of mice bearing the L1210 leukemia; format: in vivo, mice (CD2 F1); settings: for Av Δ wt (average percent change in body weight from onset to termination of therapy) / % 60-day survivors: Table 4; for Av Δ wt (average percent change in body weight from onset to termination of therapy): i.p. once daily for 6 days at optimum daily dose (10a 60, 10b 25, 10c 12.5, 10d-h 30 mg/kg); for % 60-day survivors: i.p. once daily for 6 days at optimum daily dose (30 mg/kg for 10d-g); for % Body Weight Change / Average Survival / T/C / Long Term Survival: Table 5; for Long Term Survival: survivors/animals
Protocol: The ascites cell form of leukemia L1210 was obtained from the Frederick Cancer Research Facility, Division of Cancer Treatment Tumor Repository of the National Cancer Institute, and was maintained by serial passage in tissue culture. Every 8 weeks, tumor cells were injected intraperitoneally into 5 donor CD2 F1 mice 8-10 weeks of age and were allowed to grow for 7 days. The peritoneal fluid was withdrawn, and the suspension was centrifuged for 5 min at 1600×g. The supernatant was decanted, and 10^5 cells/ml were seeded into 10 ml of RPMI 1640 medium supplemented with 10% fetal bovine serum and 1% L-glutamine (200 mM) and once again maintained in culture. To assay for antitumor activity, 0.1 ml of the cell suspension containing 10^5 leukemia cells was injected into each recipient mouse. […] Each drug was administered intraperitoneally as a solution in 100% dimethyl sulfoxide, in a volume not exceeding 25 μl. […] Mice were weighed during the course of the experiments, and the percentage change in body weight from onset to termination of therapy was used as an indication of drug toxicity. Determination of the sensitivity of neoplasms to these agents was based upon the prolongation of survival time afforded by the drug treatments.
The antitumor activity of compounds 10a-h and 16 were assessed in mice bearing the L1210 leukemia. The results of these tests are summarized in Tables 4 and 5 which show the effects of 2-alkoxycarbonyl- and 2-aryloxycarbonyl-1,2-bis(methylsulfonyl)-1-(2-chloroethyl)hydrazines on the survival time of mice bearing the L1210 leukemia.
In Table 4, the optimum daily dose was administered once per day for six consecutive days, beginning 24 hours after tumor implantation, with 5-10 mice being used per group. In Table 5, multiple dosages of compound 16 are indicated. "Av Δ wt" refers to the average percent change in body weight from onset to termination of therapy. "% T/C" refers to the average survival time of treated/control mice×100. Cures (60-day survivors) are listed separately and are not included in this calculation.

[3] = test system: EMT6 mammary carcinoma cells; assay: Colony-forming assay, EMT6 cells under hypoxic or aerobic conditions; format: cell-based, mouse; settings: 1 hr
Protocol: The ability of compounds 10h, 11, 12, and 14 to exert preferential toxicity to hypoxic cells was evaluated using the EMT6 mammary carcinoma by methodology described previously (Rockwell, S., Keyes, S. R., and Sartorelli, A. C. Rad. Res. 116: 100-113 (1988); Keyes, S. R., Rockwell, S., and Sartorelli, A. C. Cancer Res. 45: 213-216 (1985)). Briefly, exponentially growing monolayers of EMT6 (or CHO-K1/dhfr clone) were exposed to a continuously flowing 95% N2 /5% CO2 humidified atmosphere for 2 h to produce radiobiologic hypoxia. Parallel flasks were maintained similarly in humidified 95% air/5% CO2. Without breaking the hypoxia, cells were exposed to various concentrations of the test agent for 1 hr. Cell survival was then measured by colony formation.
The cytotoxicity of compound 10h was evaluated against EMT6 mouse mammary carcinoma cells in vitro under aerobic and hypoxic conditions using the colony-forming assay described above. FIG. 1 depicts the survival of EMT6 cells exposed to various concentrations of compound 10h for 1 hr under hypoxic or aerobic conditions in vitro. Points are the geometric means of two or more independent determinations of surviving fractions. The SEMs are shown where n≥3 and where the error is larger than the point size. Open triangles represent aerobic data points and filled triangles represent hypoxic data points.
Compound 12 was evaluated for its ability to exert preferential toxicity to hypoxic EMT6 cells relative to their aerobic counterparts. […] Points are geometric means of two or more independent determinations of surviving fractions. The SEMs are shown where n≥3 and where the error is larger than the point size. Open triangles are aerobic data points, and filled triangles are hypoxic data points. […] Points are means of duplicate determinations. Open triangles are parental-aerobic; filled triangles are parental-hypoxic; open circles are NADPH:cytochrome P450 reductase-transfected-aerobic; filled circles are NADPH:cytochrome P450 reductase-transfected-hypoxic.

Structure (SMILES): CS(=O)(=O)N(CCCl)N(C(=O)NCCCl)S(C)(=O)=O [Compound 3]
- antitumor/antineoplastic activity (in words) (tumor): broad-spectrum antitumor activity
- host toxicity (in words) (host animals): considerably less toxic to host animals than compound 2

Structure (SMILES): CC(=O)N(N(CCCl)S(C)(=O)=O)S(C)(=O)=O [Compound 4]
- antitumor/antineoplastic activity (in words) (tumor): broad-spectrum antitumor activity
- host toxicity (in words) (host animals): considerably less toxic to host animals than compound 2

Structure (SMILES): CCOC(=O)N(N(C)S(C)(=O)=O)S(C)(=O)=O [Compound 7, 1,2-Bis(methylsulfonyl)-2-(ethoxycarbonyl)-1-methylhydrazine]
- Relative Activation Rate by GSH/GST (GSH/GST): 30

Structure (SMILES): CN(N(C(=O)OCCBr)S(C)(=O)=O)S(C)(=O)=O [Compound 8, 1,2-Bis(methylsulfonyl)-2-(2-bromoethoxycarbonyl)-1-methylhydrazine]
- Relative Activation Rate by GSH/GST (GSH/GST): 300
- elevation of rate of activation by GSH and GST compared to buffer alone (GSH/GST; in vitro): approximately 18 fold

Structure (SMILES): COc1ccc(OC(=O)N(N(C)S(C)(=O)=O)S(C)(=O)=O)cc1 [Compound 9, 1,2-Bis(methylsulfonyl)-2-[(4-methoxyphenoxy)carbonyl]-1-methylhydrazine]
- Relative Activation Rate by GSH/GST (GSH/GST): 1,700

Structure (SMILES): COC(=O)N(N(CCCl)S(C)(=O)=O)S(C)(=O)=O [Compound 10a, 1,2-Bis(methylsulfonyl)-1-(2-chloroethyl)-2-(methoxycarbonyl)hydrazine]
- Calculated Activation Rate due to Hydrolysis [1]: 0.03 nmol/mL/min
- Calculated Activation Rate due to Thiolysis (5 mM GSH) [2]: 0.02 nmol/mL/min
- Calculated Activation Rate due to Catalyzed Thiolysis (5 mM GSH + 17.5 U/ml GST) (GST): 0.00 nmol/mL/min
- Av Δ wt (average percent change in body weight from onset to termination of therapy) (L1210 leukemia): -10.9%

Structure (SMILES): CS(=O)(=O)N(CCCl)N(C(=O)OCCCl)S(C)(=O)=O [Compound 10b, 1,2-Bis(methylsulfonyl)-1-(2-chloroethyl)-2-(2-chloroethoxycarbonyl)hydrazine]
- Calculated Activation Rate due to Hydrolysis [1]: 0.02 nmol/mL/min
- Calculated Activation Rate due to Thiolysis (5 mM GSH) [2]: 0.02 nmol/mL/min
- Calculated Activation Rate due to Catalyzed Thiolysis (5 mM GSH + 17.5 U/ml GST) (GST): 0.08 nmol/mL/min
- Av Δ wt (average percent change in body weight from onset to termination of therapy) (L1210 leukemia): -10.7%

Structure (SMILES): C=COC(=O)N(N(CCCl)S(C)(=O)=O)S(C)(=O)=O [Compound 10c, 1,2-Bis(methylsulfonyl)-1-(2-chloroethyl)-2-(vinyloxycarbonyl)hydrazine]
- Calculated Activation Rate due to Hydrolysis [1]: 0.07 nmol/mL/min
- Calculated Activation Rate due to Thiolysis (5 mM GSH) [2]: 2.07 nmol/mL/min
- Calculated Activation Rate due to Catalyzed Thiolysis (5 mM GSH + 17.5 U/ml GST) (GST): 4.70 nmol/mL/min
- Av Δ wt (average percent change in body weight from onset to termination of therapy) (L1210 leukemia): -12.4%

Structure (SMILES): CS(=O)(=O)N(CCCl)N(C(=O)Oc1ccccc1)S(C)(=O)=O [Compound 10d, 1,2-Bis(methylsulfonyl)-1-(2-chloroethyl)-2-(phenoxycarbonyl)hydrazine]
- Calculated Activation Rate due to Hydrolysis [1]: 0.06 nmol/mL/min
- Calculated Activation Rate due to Thiolysis (5 mM GSH) [2]: 0.37 nmol/mL/min
- Calculated Activation Rate due to Catalyzed Thiolysis (5 mM GSH + 17.5 U/ml GST) (GST): 1.80 nmol/mL/min
- % 60-day survivors (L1210 leukemia): 40%
- Av Δ wt (average percent change in body weight from onset to termination of therapy) (L1210 leukemia): -1.0%

Structure (SMILES): Cc1ccc(OC(=O)N(N(CCCl)S(C)(=O)=O)S(C)(=O)=O)cc1 [Compound 10e, 1,2-Bis(methylsulfonyl)-1-(2-chloroethyl)-2-[(4-tolyloxy)carbonyl]hydrazine]
- Calculated Activation Rate due to Hydrolysis [1]: 0.02 nmol/mL/min
- Calculated Activation Rate due to Thiolysis (5 mM GSH) [2]: 0.45 nmol/mL/min
- Calculated Activation Rate due to Catalyzed Thiolysis (5 mM GSH + 17.5 U/ml GST) (GST): 1.52 nmol/mL/min
- % 60-day survivors (L1210 leukemia): 20%
- Av Δ wt (average percent change in body weight from onset to termination of therapy) (L1210 leukemia): -3.0%

Structure (SMILES): CS(=O)(=O)N(CCCl)N(C(=O)Oc1ccc(Cl)cc1)S(C)(=O)=O [Compound 10f, 1,2-Bis(methylsulfonyl)-1-(2-chloroethyl)-2-[(4-chlorophenoxy)carbonyl]hydrazine]
- Calculated Activation Rate due to Hydrolysis [1]: 0.06 nmol/mL/min
- Calculated Activation Rate due to Thiolysis (5 mM GSH) [2]: 0.92 nmol/mL/min
- Calculated Activation Rate due to Catalyzed Thiolysis (5 mM GSH + 17.5 U/ml GST) (GST): 5.33 nmol/mL/min
- % 60-day survivors (L1210 leukemia): 80%
- Av Δ wt (average percent change in body weight from onset to termination of therapy) (L1210 leukemia): -1.1%

Structure (SMILES): COc1ccc(OC(=O)N(N(CCCl)S(C)(=O)=O)S(C)(=O)=O)cc1 [Compound 10g, 1,2-Bis(methylsulfonyl)-1-(2-chloroethyl)-2-[(4-methoxyphenoxy)carbonyl]hydrazine]
- Calculated Activation Rate due to Hydrolysis [1]: 0.14 nmol/mL/min
- Calculated Activation Rate due to Thiolysis (5 mM GSH) [2]: 0.41 nmol/mL/min
- Calculated Activation Rate due to Catalyzed Thiolysis (5 mM GSH + 17.5 U/ml GST) (GST): 1.80 nmol/mL/min
- % 60-day survivors (L1210 leukemia): 40%
- Av Δ wt (average percent change in body weight from onset to termination of therapy) (L1210 leukemia): -2.5%

Structure (SMILES): CS(=O)(=O)N(CCCl)N(C(=O)OCc1ccccc1)S(C)(=O)=O [Compound 11, 2-Benzyloxycarbonyl-1,2-bis(methylsulfonyl)-1-(2-chloroethyl)hydrazine]
- toxicity to EMT6 cells, aerobic versus hypoxic (in words) ([3]; hypoxic or aerobic (FIG. 2)): essentially equitoxic to EMT6 cells under both conditions of oxygenation

Structure (SMILES): CC(OC(=O)N(N(CCCl)S(C)(=O)=O)S(C)(=O)=O)c1ccc([N+](=O)[O-])cc1 (stereo not shown) [Compound 14, 1,2-Bis(methylsulfonyl)-1-(2-chloroethyl)-2-[[1-(4-nitrophenyl)ethoxy]carbonyl]hydrazine]
- toxicity to aerobic EMT6 cells compared with compound 10h (in words) ([3]; aerobic (FIG. 7 versus FIG. 1)): less toxic to aerobic EMT6 cells than compound 10h
- toxicity to hypoxic EMT6 cells compared with compound 10h (in words) ([3]; hypoxic (FIG. 7 versus FIG. 1)): essentially the same as that of compound 10h

Structure (SMILES): CS(=O)(=O)N(CCCl)N(C(=O)OCOP(=O)(O)O)S(C)(=O)=O [Compound 16, triethanolamine salt of the free acid acid of O-dibenzylphosphate-methyl carbamate]
- % Body Weight Change (L1210 leukemia; multiple dose 6 × 10 mg/kg): -3.6%
- Average Survival (L1210 leukemia; multiple dose 6 × 10 mg/kg): 14.7 days
- T/C (L1210 leukemia; multiple dose 6 × 10 mg/kg): 184%
- Long Term Survival (L1210 leukemia; multiple dose 6 × 10 mg/kg): 2/5
- % Body Weight Change (L1210 leukemia; multiple dose 6 × 20 mg/kg): +2.5%
- Average Survival (L1210 leukemia; multiple dose 6 × 20 mg/kg): 19.5 days
- T/C (L1210 leukemia; multiple dose 6 × 20 mg/kg): 244%
- Long Term Survival (L1210 leukemia; multiple dose 6 × 20 mg/kg): 3/5
- % Body Weight Change (L1210 leukemia; multiple dose 6 × 40 mg/kg): +3.7%
- Long Term Survival (L1210 leukemia; multiple dose 6 × 40 mg/kg): 5/5
- % Body Weight Change (L1210 leukemia; multiple dose 6 × 60 mg/kg): -23.2%
- Average Survival (L1210 leukemia; multiple dose 6 × 60 mg/kg): 11.0 days
- T/C (L1210 leukemia; multiple dose 6 × 60 mg/kg): 138%
- Long Term Survival (L1210 leukemia; multiple dose 6 × 60 mg/kg): 3/5
- activity against the L1210 leukemia (in words) (L1210 leukemia; i.p. once daily for 6 days): significant activity against the L1210 leukemia tumor; also recorded: significant antitumor activity
